The solubility is how much of the substance goes into solution per volume. Higher therefore signals much dissolved substance. As usually defined, the Papp is a coefficient for how fast a substance crosses the barrier. High values mean fast passage, low ones slow passage.

The source of these data is patent US20140128431A1, “PHARMACEUTICAL COMPOSITION WITH IMPROVED BIOAVAILABILITY, SAFETY AND TOLERABILITY” (priority 2012, published 2014).

The nature of data set [1]: Aqueous solubility of crystalline Compound A at physiological pHs. The class given is physicochemical. As to conditions: aqueous media at physiological pHs (pH 1.5-8.0), aqueous buffer, crystalline form. An excerpt:
(§1) The compound is moderately permeable as determined with the Caco-2 assay value of 4.5×10-6 cm/s. Targeted high doses/frequency of dosing for this series of compounds, led to the categorization of Compound A as BCS class IV compound (low solubility/low permeability).

Data set [2] can be described thus: Caco-2 assay (permeability). In kind it is in vitro ADME. As to conditions: human.
Excerpt: as §1
In general terms: Caco-2 cells form a polarised layer with tight junctions and transporters.

Some results are limits rather than exact numbers.

In the case of `COc1ccc(-c2cc(C(C)(C)C)c(OC)c3cc(-c4ccc(NS(C)(=O)=O)cc4)cnc23)c(=O)[nH]1` [Compound A, N-{4-[6-tert-Butyl-5-methoxy-8-(6-methoxy-2-oxo-1,2-dihydro-pyridin-3-yl)-quinolin-3-yl]-phenyl}-methanesulfonamide], the solubility in data set [1] is under 1 µg/mL. Besides, the Papp in data set [2] is 4.5 ×10⁻⁶ cm/s.
